Experimental data reported in patent publication US4202891A, “15-Oxygenated sterol compounds and the use of such compounds to inhibit the biosynthesis of sterols” (priority 1977, dated 1980).

Experiments:
plasma cholesterol = assay: Plasma cholesterol concentration in mice, ketone in diet (Example 47); type: in vivo, mouse; details: 0.2% in diet; after eight days; 7-week-old mice
Method: (§1) Another dietary experiment with 5β-cholest-8(14)-en-3β-ol-15-one was performed using 7-week-old mice. Five mice were fed the ketone at a level of 0.2% in a diet which was essentially free of animal sterols for eight days. Five control pair-fed mice were fed the same diet to which the ketone was not added. The mean plasma cholesterol concentration in the ketone group after the eight day experiment was 35.8(±3.6, standard error of mean) mg per 100 ml of plasma while the corresponding value for the pair-fed group was 114.4 (±3.4, standard error of mean). It should be noted that very closely matched pairfeeding is difficult to perform in mice of this age due to the small amounts of food which are consumed and which must be accurately determined in such experiments.

HMG-CoA reductase [1] = assay: Reduction of the activity of HMG-CoA reductase in primary cultures of liver cells; type: cell-based, mouse; details: read-out: Concentrations Required for 50% Reduction of the Activity of HMG-CoA Reductase
Method: (§2) The primary liver cell cultures were prepared from 16-day-old (C57BL/6J fetuses and grown in chemically defined medium (serum-free) as described in the above cited publications. The L cells, a subline of NCTC clone 929 mouse fibroblasts, were grown in chemically defined medium (serum-free) as described in the publications. These L cells are transformed fibroblasts which are regarded as malignant since they will grow as tumors if injected into the mouse strain from which they were initially obtained.
(§3) The preparation of steroid-containing media, procedures for assays of the conversion of [1-^14 C]acetate into digitonin-precipitable sterols, fatty acids, and CO2 and methods for the measurement of DNA, protein, and HMG-CoA reductase were as described in the published articles. L cell cultures were preincubated with the 15-oxygenated sterols and their derivatives for 4 hours, then [1-^14 C]acetate was added at a concentration of 4 μmoles per ml (4 μCi per ml); or the L cell cultures were incubated for 5 hours with the 15-oxygenated sterols before they were harvested for determination of microsomal HMG-CoA reductase activity.
Conditions for incubating the 15-oxygenated sterols or their derivatives with liver cell cultures were similar to those described for L cell cultures except that the cultures were incubated with the test compounds for 12 hours before labeled acetate was added or before they were harvested for enzyme assay.
(§4) A number of the 15-oxygenated sterols have also been tested with respect to their effects on the activity and/or levels of the enzyme HMG-CoA reductase (3-hydroxy-3-methylglutaryl coenzyme A reductase) in the L cells and in the liver cells. As noted previously, this enzyme catalyzes the reduction of 3-hydroxy-3-methylglutaryl coenzyme A to yield mevalonic acid, an essential intermediate in the biosynthesis of sterols and of a number of other essential compounds in cells.
(§5) Using the technique described by Kandutsch and Chen in the article cited in the previous example, the concentrations of various 15-oxygenated sterols required to reduce the levels of activity of HMG-CoA reductase by 50% was determined in the cells of the L cells in culture and of the primary cultures of liver cells.

[2] = Adverse observations in rats on 0.2% ketone diet; type: in vivo, rat (male, Sprague-Dawley); details: 0.2% in diet
Method: (§6) Another experiment following essentially the procedure of Example 43 was performed in which the 5α-cholest-8(14)-en-3β-ol-15-one was incorporated into the Cholesterol Free Test Diet at a concentration of 0.2%.

[3] = Food consumption of rats, sterol in diet; type: in vivo, rat (male, Sprague-Dawley)
Text: Male rats of the Sprague-Dawley strain were purchased from Sprague-Dawley Farms (Madison, Wisconsin). The rats were maintained on a light (7:00 A.M.-5:30 P.M.)--dark (5:30 P.M.-7:00 A.M.) cycle and fed a Cholesterol Free Test Diet (United States Biochemical Corporation, Cleveland, Ohio) for a period of 13 days prior to the initiation of the experimental period. Six days prior to the initiation of the experimental period blood samples were taken for assay of serum cholesterol concentration and, based upon the results of these analyses, rats were divided into 3 groups with approximately the same mean serum cholesterol concentration. The rats were then individually housed in metabolic cages (Econo-Metabolism Units, Maryland Plastics, New York, New York) for 6 days prior to the initiation of the experimental period. The animals were maintained on the light-dark cycle throughout the experimental period.
The individual animals were weighed daily throughout the experimental period. Food consumption by the individual rats was similarly recorded daily. No significant spillage of the food or contamination of the food by feces or urine was possible due to the nature of the matabolic cage and the food receptacles utilized.
5α-Cholest-8(14)-en-3β-ol-15-one (500 mg), prepared and purified as described in Example 1, was added in small portions to 500 g of the Cholesterol Free Test Diet in a 2 liter glass stoppered bottle. After each addition of the sterol to the diet, the bottle was rolled and shaken thoroughly. The resulting 0.1% diet with respect to the 5α-cholest-8(14)-en-3β-ol-15-one was stored at 4° C. Prior to use in feeding, the diet was allowed to warm to room temperature (~25° C.).
2. Ketone group--7 rats with free access to the Cholesterol Free Test Diet containing 0.1% 5α-cholest-8(14)-en-3β-ol-15-one.
as §6

[4] = Body weight of mice, ketone in diet (Example 47); type: in vivo, mouse; details: 0.2% in diet; eight days; 7-week-old mice
Method: as §1, with “Another dietary experiment with 5β-cholest-8(14)-en-3β-ol-15-one was performed using 7-week-old mice.” left out

HMG-CoA reductase [5] = assay: Reduction of the activity of HMG-CoA reductase in L cell cultures; type: cell-based, mouse; details: read-out: Concentrations Required for 50% Reduction of the Activity of HMG-CoA Reductase
Method: as §2, §3, §4, §5

CC(C)CCC[C@@H](C)[C@H]1CC(=O)C2=C3CC[C@H]4C[C@@H](O)CC[C@]4(C)[C@H]3CC[C@@]21C [5α-Cholest-8(14)-en-3β-ol-15-one, 5α-cholest-8(14)-en-3β-ol-15-one]
mean plasma cholesterol concentration (standard error of mean) (plasma cholesterol): 35.8 mg per 100 ml of plasma | IC50 (HMG-CoA reductase [1]): 4 µM | diarrhea ([2]; day 8): 4 of the rats in the ketone group were developing diarrhea | death ([2]; day 9): One of these rats died the following day | loose stools ([2]; day 9): Two other rats in this group showed loose stools on day 9 | food consumption relative to ad libidum group (in words) ([3]; 0.1% in diet): significantly less than that of the rats in the ad libidum group | Food consumption ([3]; 0.1% in diet, day 0): 10.4 ± 0.7 g | Food consumption ([3]; 0.1% in diet, day 1): 5.1 ± 0.3 g | Food consumption ([3]; 0.1% in diet, day 2): 7.1 ± 0.3 g | Food consumption ([3]; 0.1% in diet, day 3): 5.5 ± 0.3 g | Food consumption ([3]; 0.1% in diet, day 4): 7.1 ± 0.5 g | Food consumption ([3]; 0.1% in diet, day 5): 5.8 ± 0.5 g | Food consumption ([3]; 0.1% in diet, day 6): 6.6 ± 0.5 g | Food consumption ([3]; 0.1% in diet, day 7): 7.5 ± 0.5 g | food consumption relative to ad libidum group (in words) ([3]; 0.2% in diet): significantly less than that of the rats in the ad libidum group | Daily food consumption ([3]; 0.2% in diet, day 0): 7.2 ± 0.6 g | Daily food consumption ([3]; 0.2% in diet, day 1): 4.4 ± 1.1 g | Daily food consumption ([3]; 0.2% in diet, day 2): 4.8 ± 0.4 g | Daily food consumption ([3]; 0.2% in diet, day 3): 4.8 ± 0.2 g | Daily food consumption ([3]; 0.2% in diet, day 4): 5.5 ± 0.4 g | Daily food consumption ([3]; 0.2% in diet, day 5): 5.5 ± 0.3 g | Daily food consumption ([3]; 0.2% in diet, day 6): 5.4 ± 0.2 g | Daily food consumption ([3]; 0.2% in diet, day 7): 5.1 ± 0.2 g | Daily food consumption ([3]; 0.2% in diet, day 8): 4.3 ± 0.6 g | average decrease in body weight (standard error of mean) [4]: 5.9 g | IC50 (HMG-CoA reductase [5]): 0.3 µM
